{
  "source": "patent US20110190244A1",
  "about": "“METHOD OF TREATMENT OF EGFR INHIBITOR TOXICITY” (priority 2010, published 2011)",
  "key": {"[1]": {"conditions": "rats, single oral doses up to 1200 mg/kg; cited from earlier work"}, "[2]": {"conditions": "cited from earlier work"}, "[3]": {"target": "T1, hERG current (Homo sapiens, UniProt Q12809)", "T1 construct": "expressed in transfected cells; host or cells: HEK-293", "T1 sequence (Q12809 whole entry)": "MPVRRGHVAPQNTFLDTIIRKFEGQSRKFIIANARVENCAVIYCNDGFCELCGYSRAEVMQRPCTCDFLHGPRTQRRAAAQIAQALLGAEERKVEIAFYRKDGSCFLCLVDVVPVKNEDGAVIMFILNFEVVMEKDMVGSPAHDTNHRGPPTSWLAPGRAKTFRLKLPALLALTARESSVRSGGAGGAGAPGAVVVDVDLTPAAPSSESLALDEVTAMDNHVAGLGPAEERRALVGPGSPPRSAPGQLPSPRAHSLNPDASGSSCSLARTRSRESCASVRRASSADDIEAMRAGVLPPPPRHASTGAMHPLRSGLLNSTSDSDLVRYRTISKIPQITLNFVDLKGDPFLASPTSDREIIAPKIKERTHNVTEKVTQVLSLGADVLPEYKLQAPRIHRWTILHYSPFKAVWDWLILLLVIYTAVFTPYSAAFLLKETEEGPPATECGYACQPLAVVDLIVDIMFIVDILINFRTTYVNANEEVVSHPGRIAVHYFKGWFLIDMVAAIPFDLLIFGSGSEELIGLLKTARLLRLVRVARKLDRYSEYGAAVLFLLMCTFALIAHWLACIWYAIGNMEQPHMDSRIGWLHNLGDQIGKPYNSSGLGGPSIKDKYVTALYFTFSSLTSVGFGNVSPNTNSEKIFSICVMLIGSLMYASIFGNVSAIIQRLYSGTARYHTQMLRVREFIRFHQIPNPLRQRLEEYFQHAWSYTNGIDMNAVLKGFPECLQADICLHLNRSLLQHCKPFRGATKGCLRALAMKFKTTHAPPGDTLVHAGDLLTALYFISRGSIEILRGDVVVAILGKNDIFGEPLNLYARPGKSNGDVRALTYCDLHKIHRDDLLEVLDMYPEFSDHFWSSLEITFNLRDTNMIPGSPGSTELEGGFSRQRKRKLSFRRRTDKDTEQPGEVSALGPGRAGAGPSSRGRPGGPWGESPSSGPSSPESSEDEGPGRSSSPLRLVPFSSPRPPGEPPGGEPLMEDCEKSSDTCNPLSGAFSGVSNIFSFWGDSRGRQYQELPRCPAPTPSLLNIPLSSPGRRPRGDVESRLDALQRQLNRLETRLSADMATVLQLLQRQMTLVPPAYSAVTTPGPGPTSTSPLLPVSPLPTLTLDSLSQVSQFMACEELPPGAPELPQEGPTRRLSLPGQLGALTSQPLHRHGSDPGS", "conditions": "transfected HEK-293 cells, in vitro; read-out: hERG current inhibition IC50; cited from earlier work"}, "[4]": {"conditions": "dogs, 50, 250 and 1000 mg/kg/day; cited from earlier work"}, "[5]": {"test_system": "STS", "conditions": "cited from earlier work"}, "[6]": {"conditions": "cited from earlier work", "remark": "listed apart in the source"}, "[7]": {"assay": "Repeated dose 1- and 6-month oral toxicity, rats", "format": "in vivo", "conditions": "versus 80 mg oral dose in patients", "from_the_text": "However, there was a slightly lower exposure over time in rats compared to dogs. […] In vitro and in vivo metabolic studies have shown a large number of metabolites with qualitatively similar in vitro profiles in rats, dogs and man. […] Based on the pharmacokinetic parameters of BN83495, it is not expected to have any significant interaction with EGFR inhibitor/s which are metabolised predominantly by CYP3A4 (Roche products—Tarceva Product Information)\nThe no observed adverse effect level (NOAEL) was 200 mg/kg/day for males and 50 mg/kg/day for females."}, "[8]": {"assay": "Oral administration to radiotelemetry instrumented dogs for seven days", "conditions": "highest tested dose, versus 80 mg oral dose in patients"}, "[9]": {"conditions": "mice, 2000 mg/kg oral; cited from earlier work"}, "[10]": {"conditions": "dogs, cited from earlier work"}, "[11]": {"conditions": "female patients, 80 mg oral dose; cited from earlier work"}, "[12]": {"test_system": "carcinogen-induced mammary tumours", "conditions": "ovariectomized rats; cited from earlier work"}, "[13]": {"target": "T2, STS (Homo sapiens, UniProt P08842)", "T2 construct": "from tissue; host or cells: peripheral blood lymphocytes / mononuclear cells and breast tumour tissue of patients", "T2 sequence (P08842 22-583)": "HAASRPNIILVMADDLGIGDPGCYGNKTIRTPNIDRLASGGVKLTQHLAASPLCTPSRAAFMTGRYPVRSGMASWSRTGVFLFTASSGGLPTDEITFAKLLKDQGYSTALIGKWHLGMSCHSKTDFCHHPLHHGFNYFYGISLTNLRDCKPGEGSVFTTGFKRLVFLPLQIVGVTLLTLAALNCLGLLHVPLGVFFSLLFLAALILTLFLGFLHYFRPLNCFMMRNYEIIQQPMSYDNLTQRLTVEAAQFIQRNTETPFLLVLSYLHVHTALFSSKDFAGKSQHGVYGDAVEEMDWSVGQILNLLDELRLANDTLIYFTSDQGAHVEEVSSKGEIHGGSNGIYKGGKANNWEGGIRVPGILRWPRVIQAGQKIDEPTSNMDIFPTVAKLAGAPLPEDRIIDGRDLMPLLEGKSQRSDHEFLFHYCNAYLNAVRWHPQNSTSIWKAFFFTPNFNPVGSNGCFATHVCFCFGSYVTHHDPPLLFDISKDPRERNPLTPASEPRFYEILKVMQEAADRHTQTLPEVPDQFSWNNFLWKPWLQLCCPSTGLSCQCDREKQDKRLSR", "conditions": "40 mg dose; cited from earlier work"}, "[14]": {"conditions": "cited from earlier work", "remark": "listed apart in the source"}, "[15]": {"target": "CYP2C19 (Homo sapiens, UniProt P33261)", "sequence (P33261 whole entry)": "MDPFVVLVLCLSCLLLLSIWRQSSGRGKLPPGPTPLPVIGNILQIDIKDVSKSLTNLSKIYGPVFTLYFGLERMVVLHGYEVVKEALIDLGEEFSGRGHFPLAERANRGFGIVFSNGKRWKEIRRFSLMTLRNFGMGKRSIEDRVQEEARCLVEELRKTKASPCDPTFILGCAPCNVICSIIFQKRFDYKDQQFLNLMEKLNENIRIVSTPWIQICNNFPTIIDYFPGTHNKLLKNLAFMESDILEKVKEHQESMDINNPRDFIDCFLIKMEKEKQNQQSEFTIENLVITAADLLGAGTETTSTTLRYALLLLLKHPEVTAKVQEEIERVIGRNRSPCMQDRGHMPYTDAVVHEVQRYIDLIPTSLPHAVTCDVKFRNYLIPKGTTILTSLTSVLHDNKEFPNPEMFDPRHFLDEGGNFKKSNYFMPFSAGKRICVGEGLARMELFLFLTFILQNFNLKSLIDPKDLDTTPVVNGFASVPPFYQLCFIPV", "conditions": "cited from earlier work"}, "[16]": {"conditions": "cited from earlier work", "remark": "listed apart in the source"}, "[17]": {"conditions": "rats, 2000 mg/kg oral; cited from earlier work"}, "[18]": {"test_system": "isolated Purkinje fibres", "conditions": "only at a high concentration of 50 μM; cited from earlier work"}, "[19]": {"conditions": "cited from earlier work; for no observed adverse effect level (NOAEL): rats, repeated oral dose"}, "[20]": {"target": "T2, STS", "conditions": "cited from earlier work"}, "[21]": {"conditions": "rats, 25, 50, 100 and 200 mg/kg/day"}},
  "note": "Read-outs that look alike come from different tables or passages of the source.",
  "data": [
    {"smiles": "NS(=O)(=O)Oc1ccc2c3c(c(=O)oc2c1)CCCCC3", "note": "[BN83495, Sulphamic acid, 6,7,8,9,10,11-hexahydro-6-oxobenzo[b]cyclohepta[d]pyran-3-yl ester]", "values": [
      {"measurement": "effect on behaviour or respiration", "setting": "[1]", "value": "no effect on behaviour or respiration"},
      {"measurement": "best response: stable disease", "setting": "[2]; 14 patients, 5 mg or 20 mg", "value": 4, "unit": "patients"},
      {"measurement": "serum concentrations of oestradiol, androstenediol and testosterone", "setting": "[2]; Day 5 assessment", "value": "significant decreases"},
      {"measurement": "tolerability", "setting": "[2]; both tested doses (5 mg, 20 mg)", "value": "well tolerated"},
      {"measurement": "dose proportionality of Cmax, AUC and mean plasma clearance", "setting": "[2]; patients, 5 mg and 20 mg", "value": "non dose proportional pharmacokinetics"},
      {"measurement": "serum DHEA concentration", "setting": "[2]; patients, 5 mg or 20 mg", "value": "significant decreases"},
      {"measurement": "IC50", "setting": "[3]", "value": 13, "unit": "µM"},
      {"measurement": "adrenal findings", "setting": "[4]", "value": "adrenal cortical cell hypertrophy was seen in all treated animal groups"},
      {"measurement": "kidney findings", "setting": "[4]", "value": "flattened tubular epithelium in one high dose animal/sex"},
      {"measurement": "liver findings", "setting": "[4]", "value": "hepatocellular vacuolation in both sexes at 50 mg/kg/day and in females at 250 and 1000 mg/kg/day"},
      {"measurement": "STS inhibition in rodents", "setting": "[5]; in vivo", "value": "potent STS inhibitor"},
      {"measurement": "tolerability", "setting": "[6]; doses 1 mg up to 80 mg", "value": "well tolerated up to a dose of 40 mg"},
      {"measurement": "drug-related adverse events, Grade 3", "setting": "[6]; observed in 2 patients", "value": 4},
      {"measurement": "effect on ECG parameters", "setting": "[6]; preliminary review of ECG data", "value": "does not have an effect on ECG parameters"},
      {"measurement": "patients with stable disease for more than 6 months", "setting": "[6]; three higher dose groups", "value": "Four"},
      {"measurement": "dose limiting toxicity", "setting": "[6]; up to a dose of 40 mg", "value": "no dose limiting toxicity was observed"},
      {"measurement": "exposure (AUC) in rats relative to mean AUC in female patients", "setting": "[7]; female rats", "value": 14, "unit": "fold"},
      {"measurement": "exposure (AUC) in rats relative to mean AUC in female patients", "setting": "[7]; male rats", "value": 31, "unit": "fold"},
      {"measurement": "mean maximum plasma exposure relative to mean steady state plasma AUC in female patients", "setting": "[8]", "value": 62, "unit": "fold"},
      {"measurement": "mean maximum plasma exposure relative to mean steady state plasma Cmax in female patients", "setting": "[8]", "value": 103, "unit": "fold"},
      {"measurement": "adverse effects in single dose oral toxicity study", "setting": "[9]", "value": "did not show any adverse effects"},
      {"measurement": "haemodynamic effects", "setting": "[10]; at both doses (150 and 400 mg/kg/day)", "value": "transient hypotension and reflex tachycardia"},
      {"measurement": "ECG changes", "setting": "[10]; oral 150 and 400 mg/kg/day for seven consecutive days", "value": "did not induce any clinically relevant ECG changes"},
      {"measurement": "mean steady state plasma AUC", "setting": "[11]", "value": 1293, "unit": "ng·h/mL"},
      {"measurement": "mean steady state plasma Cmax", "setting": "[11]", "value": 159, "unit": "ng/mL"},
      {"measurement": "growth of mammary tumours stimulated by estrone sulphate (E1S)", "setting": "[12]", "value": "blocked the ability of estrone sulphate (E1S) to stimulate the growth"},
      {"measurement": "inhibition of STS in peripheral blood mononuclear cells", "setting": "[13]", "value": 95, "unit": "%"},
      {"measurement": "protein binding", "setting": "[14]", "value": "highly protein bound"},
      {"measurement": "potential clinically significant induction/inhibition of a CYP450 isoenzyme", "setting": "[15]", "value": "inhibition of CYP2C19"},
      {"measurement": "absorption", "setting": "[16]; non-clinical studies", "value": "rapid absorption"},
      {"measurement": "elimination of radioactivity", "setting": "[16]; preclinical models, by biotransformation", "value": "mainly via urine"},
      {"measurement": "distribution", "setting": "[16]; rats, primarily in blood and related organs, intestine, liver and kidneys", "value": "widely distributed"},
      {"measurement": "erythrocyte uptake", "setting": "[16]; uptake and retention related to carbonic anhydrase II enzyme", "value": "sequestered in erythrocytes"},
      {"measurement": "adverse effects in single dose oral toxicity study", "setting": "[17]", "value": "did not show any adverse effects"},
      {"measurement": "action potential duration (APD)", "setting": "[18]", "value": "increased action potential duration"},
      {"measurement": "plasma exposure versus dose", "setting": "[19]; 6-month repeat dose rat toxicology studies, Day 1", "value": "proportional to dose"},
      {"measurement": "bone findings (femur, tibia and sternum)", "setting": "[19]; [21]", "value": "partially reversible osteoid deposition at all treated dose-levels"},
      {"measurement": "liver findings", "setting": "[19]; [21]", "value": "reversible hepatocellular vacuolation in all treated groups"},
      {"measurement": "no observed adverse effect level (NOAEL)", "setting": "[19]; females", "value": 50, "unit": "mg/kg/day"},
      {"measurement": "no observed adverse effect level (NOAEL)", "setting": "[19]; males", "value": 200, "unit": "mg/kg/day"},
      {"measurement": "patients with more than 90% STS inhibition in tumour tissue", "setting": "[20]; 5 mg dose", "value": "3 out of 4"},
      {"measurement": "patients with more than 90% STS inhibition in tumour tissue", "setting": "[20]; 20 mg dose, patients in whom it was measured", "value": "all 3"},
      {"measurement": "inhibition of STS activity in peripheral blood lymphocytes", "setting": "[20]; 24 hours after dosing on Day 5, both dose groups (5 mg, 20 mg daily)", "value": "more than 90%"}
    ]},
    {"smiles": "CCCN1C(=O)CC2C3CCc4cc(OS(N)(=O)=O)ccc4C3CC[C@]2(C)C1=O", "note": "(some centres unmarked) [STX213]", "values": [
      {"measurement": "STS inhibition in rodents", "setting": "[5]; rodents", "value": "effectively inhibit STS activity"}
    ]}
  ]
}
